Test results taken from the supplement of paper PMC13380429.

Legend:
Caco-2 [1] = assay: drug sensitivity score (DSS) for viability; higher = more toxic; extreme values may be limits of the assay; settings: 72 h
HepG2 [2] = assay: as above; settings: 72 h
Vero E6 [3] = assay: as above; settings: 72 h
U2OS [4] = assay: as above; settings: 72 h
Calu-3 [5] = assay: as above; settings: 72 h
A549-ACE2 = assay: drug-induced phospholipidosis relative to tamoxifen; higher = more phospholipidosis
HepG2 [6] = assay: relative viability EC50 (midpoint between 100% and the lowest measured viability); higher = less toxic; settings: 72 h
Vero E6 [7] = assay: as above; settings: 72 h
[8] = tested on: A549-ACE2 infected with SARS-CoV-2; assay: morphology score (similarity to uninfected cells); higher = more like uninfected cells; settings: 24 h
[9] = tested on: A549-ACE2 infected with SARS-CoV-2; assay: SARS-CoV-2 infection rate relative to DMSO; higher = more infection; settings: 24 h
[10] = tested on: A549-ACE2 infected with SARS-CoV-2; assay: cell count relative to DMSO; higher = less toxic; settings: 24 h
Caco-2 [11] = assay: cell viability relative to DMSO; higher = less toxic; settings: 72 h
HepG2 [12] = assay: as above; settings: 72 h
Vero E6 [13] = assay: as above; settings: 72 h
U2OS [14] = assay: as above; settings: 72 h
Calu-3 [15] = assay: as above; settings: 72 h
Caco-2 [16] = assay: relative viability EC50 (midpoint between 100% and the lowest measured viability); higher = less toxic; settings: 72 h
U2OS [17] = assay: as above; settings: 72 h
Calu-3 [18] = assay: as above; settings: 72 h

CC(C)Oc1ccc(-c2nc(-c3cccc4c3CC[C@@H]4NCCO)no2)cc1C#N [ozanimod]
Settings | drug sensitivity score | relative viability EC50 [µM]
Caco-2 [1] | 12.1 | –
Calu-3 [5] | 1.6 | –
HepG2 [2] | 3 | –
HepG2 [6] | – | 3.17
U2OS [4] | 1.5 | –
Vero E6 [3] | 0.6 | –
Vero E6 [7] | – | > 10

drug-induced phospholipidosis [%], A549-ACE2
Settings | 0.3 µM | 0.833333 µM | 3.33333 µM | 6.66667 µM | 10 µM
24 h | 6.09 | 18 | 72.5 | 83.5 | 92.3
48 h | -8.87 | 1.18 | 67.1 | 90.1 | 96.7
72 h | -6.97 | 0.974 | 62.1 | 108 | 122

Settings | SARS-CoV-2 infection rate, [9] [%] | cell count, [10] [%] | cell viability, Caco-2 [11] [%] | cell viability, Calu-3 [15] [%] | cell viability, HepG2 [12] [%] | cell viability, U2OS [14] [%] | cell viability, Vero E6 [13] [%] | morphology score, [8]
1 nM | – | – | 95.2 | 94.5 | 120 | 95.2 | 103 | –
10 nM | – | – | 75.2 | 87.2 | 101 | 105 | 96.1 | –
0.1 µM | 96 | 104 | – | – | – | – | – | 0.14
100 nM | – | – | 69.7 | 93.3 | 106 | 94.9 | 102 | –
0.3 µM | 111 | 100 | – | – | – | – | – | 0.03
1 µM | 91 | 100 | – | – | – | – | – | 0.33
1000 nM | – | – | 77.6 | 96.6 | 100 | 97.8 | 103 | –
3 µM | 44 | 114 | – | – | – | – | – | 0.77
10000 nM | – | – | 73 | 73.1 | 44.4 | 72.2 | 76.7 | –

O=C(/C=C/c1cccnc1)NCCCCC1CCN(C(=O)c2ccccc2)CC1 [FK-866]
Settings | drug sensitivity score | relative viability EC50 [µM]
Caco-2 [1] | 33.2 | –
Caco-2 [16] | – | 0.0134
Calu-3 [5] | 28.1 | –
Calu-3 [18] | – | 0.0392
HepG2 [2] | 31.9 | –
HepG2 [6] | – | 0.0092
U2OS [4] | 30.7 | –
U2OS [17] | – | 0.0303
Vero E6 [3] | 29.4 | –
Vero E6 [7] | – | 0.0361

cell viability [%]
Settings | Caco-2 [11] | Calu-3 [15] | HepG2 [12] | U2OS [14] | Vero E6 [13]
1 nM | 93.7 | 110 | 84.6 | 97.8 | 106
10 nM | 65 | 112 | 57.9 | 98.1 | 106
100 nM | 5.8 | 7 | 16.6 | 0 | 2.7
1000 nM | 5 | 5.1 | 11.3 | -0.5 | 1.2
10000 nM | 5.6 | 4.6 | 11.7 | 0 | 1.9

Clc1ccc(CO/N=C(\Cn2ccnc2)c2ccc(Cl)cc2Cl)c(Cl)c1 [oxiconazole]
Settings | drug sensitivity score | relative viability EC50 [µM]
Caco-2 [1] | 1.1 | –
Caco-2 [16] | – | > 10
Calu-3 [5] | 0 | –
Calu-3 [18] | – | > 10
HepG2 [2] | 0 | –
HepG2 [6] | – | > 10
U2OS [4] | 0 | –
U2OS [17] | – | > 10
Vero E6 [3] | 0 | –
Vero E6 [7] | – | > 10

cell viability [%]
Settings | Caco-2 [11] | Calu-3 [15] | HepG2 [12] | U2OS [14] | Vero E6 [13]
1 nM | 106 | 97.5 | 97.4 | 100 | 99.9
10 nM | 94.8 | 87.3 | 103 | 97.3 | 105
100 nM | 99.8 | 83.4 | 105 | 97.6 | 95.4
1000 nM | 90 | 94.8 | 98.5 | 91.1 | 102
10000 nM | 83.5 | 103 | 89.7 | 92 | 95.5

Cc1ccccc1CN1C(=O)C2=C(CCN(Cc3ccccc3)C2)N2CCN=C12 [ONC201]
Settings | drug sensitivity score | relative viability EC50 [µM]
Caco-2 [1] | 2.5 | –
Caco-2 [16] | – | 3.72
Calu-3 [5] | 0.6 | –
Calu-3 [18] | – | > 10
HepG2 [2] | 6.3 | –
HepG2 [6] | – | 2.39
U2OS [4] | 2.8 | –
U2OS [17] | – | 3.64
Vero E6 [3] | 3.5 | –
Vero E6 [7] | – | 3.35

cell viability [%]
Settings | Caco-2 [11] | Calu-3 [15] | HepG2 [12] | U2OS [14] | Vero E6 [13]
1 nM | 108 | 103 | 108 | 100 | 110
10 nM | 106 | 103 | 93.7 | 102 | 101
100 nM | 93.4 | 102 | 104 | 95.4 | 103
1000 nM | 107 | 106 | 91.6 | 106 | 102
10000 nM | 44.1 | 75.7 | 10.3 | 41.1 | 32.2

CC(=O)OCC(=O)[C@@]1(O)CC[C@H]2[C@@H]3CCC4=CC(=O)C=C[C@]4(C)[C@H]3[C@@H](O)C[C@@]21C [prednisolone-acetate]
Settings | drug sensitivity score | relative viability EC50 [µM]
Caco-2 [1] | 0.1 | –
Caco-2 [16] | – | > 10
Calu-3 [5] | 0 | –
Calu-3 [18] | – | > 10
HepG2 [2] | 0 | –
HepG2 [6] | – | > 10
U2OS [4] | 0 | –
U2OS [17] | – | > 10
Vero E6 [3] | 0 | –
Vero E6 [7] | – | > 10

cell viability [%]
Settings | Caco-2 [11] | Calu-3 [15] | HepG2 [12] | U2OS [14] | Vero E6 [13]
1 nM | 110 | 99.5 | 107 | 110 | 99.5
10 nM | 108 | 92.3 | 106 | 106 | 106
100 nM | 93.3 | 82.6 | 93.1 | 100 | 104
1000 nM | 106 | 87 | 90.9 | 101 | 102
10000 nM | 85.8 | 98.1 | 114 | 97.8 | 94.4

COC(=O)[C@H](Cc1cccc(C(=N)N)c1)[C@@H](C)NC(=O)c1ccc(-c2cc[n+]([O-])cc2)cc1 [otamixaban]
Settings | drug sensitivity score | relative viability EC50 [µM]
Caco-2 [1] | 0 | –
Caco-2 [16] | – | > 10
Calu-3 [5] | 0 | –
Calu-3 [18] | – | > 10
HepG2 [2] | 0 | –
HepG2 [6] | – | > 10
U2OS [4] | 0 | –
U2OS [17] | – | > 10
Vero E6 [3] | 0 | –
Vero E6 [7] | – | > 10

cell viability [%]
Settings | Caco-2 [11] | Calu-3 [15] | HepG2 [12] | U2OS [14] | Vero E6 [13]
1 nM | 104 | 88.9 | 89.3 | 99.1 | 103
10 nM | 104 | 92 | 103 | 95.3 | 101
100 nM | 101 | 90.5 | 98.6 | 98.3 | 94.1
1000 nM | 99.2 | 94.4 | 102 | 97.8 | 97.9
10000 nM | 104 | 105 | 96.7 | 104 | 96.3
